Test results taken from patent publication US5264372A (Amylin Pharmaceuticals, Inc., priority 1991, dated 1993).
One block for each compound: values may come before it.

What was measured:
[1] = target: T1, ^125 I-h CGRP binding site (CGRP receptor) in rat liver membranes (Rattus norvegicus, UniProt Q63118+Q9JJ74); experiment: 125I-h CGRP binding to rat liver membranes (saturation and competition)
T1 construct: from tissue; host or cells: rat liver membranes
Experimental: Membranes were prepared from male Wistar or Sprague-Dawley rats (200-250 grams). Following decapitation, liver, soleus muscle and brain regions were removed to phosphate-buffered saline (PBS), pH 7.4 at 4° C. Tissues were weighed then placed in 5 ml/g tissue of ice-cold 20 mM HEPES buffer, pH 7.4, and homogenized with a Polytron at setting 4 for 10 seconds. An additional 30 ml of cold HEPES was added, and the homogenates centrifuged for 15 minutes at 48,000×g. After discarding the supernatant fluids, membrane pellets were homogenized in 40 ml of fresh HEPES buffer and centrifuged as before. Membranes were washed again by homogenization in buffer and centrifugation.
The final membrane pellet was resuspended in a volume of 20 mM HEPES buffer containing 0.2 mM PMSF added immediately before use from a stock 0.2 M solution in ethanol. A volume of buffer was used sufficient to yield a concentration of about 0 to about 20 mg original tissue/ml.
To 12×75 mm glass or polypropylene tubes were added 150 μl of HBBM buffer (20 mM HEPES buffer, pH 7.4, containing 1 mg/ml bacitracin, 1 mg/ml protease-free BSA Fraction V, 4 mM MgCl2) to which 0.2 mM PMSF was added just prior to use.
To this solution, 50 μl of unlabeled peptide diluted in HBBM buffer at concentrations of […] to 10^-6 M, were added. Control tubes contained HBBM alone. […] Incubations were begun by the addition of 250 μl of buffer containing membranes from 4 mg original weight of tissue, and continued for 60 minutes at room temperature (24° C.).
Suspensions were then filtered through GF/B glass fiber filters (previously soaked for 5 hours in 0.3% PEI) in a Brandel M-24 harvester. Filters were washed immediately before use with 5 ml of cold PBS, and immediately after filtration with 15 ml cold PBS. Filters were then counted in a gamma-counter.
The concentration of free ligand was derived by subtracting […] from total ligand added.
Scatchard and competition curve analysis was performed as described above.

[2] = target: ^125 I-CGRP binding in skeletal muscle crude membrane preparations; details: Chantry et al.; cited from earlier work
[3] = Plasma glucose increment after i.v. peptide in fasted anesthetized rats; details: doses of 1 and 10 μg i.v.
[4] = target: ^125 I-CGRP binding sites in membranes from rat cerebellum (Rattus norvegicus, UniProt Q63118+Q9JJ74)
^125 I-CGRP binding sites in membranes from rat cerebellum, sequence (Q63118 24-464): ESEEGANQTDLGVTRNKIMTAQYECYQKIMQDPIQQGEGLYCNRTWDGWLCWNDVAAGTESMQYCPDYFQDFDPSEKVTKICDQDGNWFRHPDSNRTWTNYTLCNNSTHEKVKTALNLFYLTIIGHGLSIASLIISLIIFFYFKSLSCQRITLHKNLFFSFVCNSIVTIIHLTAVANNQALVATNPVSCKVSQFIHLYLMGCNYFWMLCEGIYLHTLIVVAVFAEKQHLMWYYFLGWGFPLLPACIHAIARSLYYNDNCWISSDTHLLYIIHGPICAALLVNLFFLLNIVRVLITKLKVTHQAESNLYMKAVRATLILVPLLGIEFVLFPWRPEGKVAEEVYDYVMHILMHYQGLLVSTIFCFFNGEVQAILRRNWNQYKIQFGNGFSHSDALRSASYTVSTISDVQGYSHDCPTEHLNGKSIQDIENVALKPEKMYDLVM
^125 I-CGRP binding sites in membranes from rat cerebellum, sequence (Q9JJ74 27-148): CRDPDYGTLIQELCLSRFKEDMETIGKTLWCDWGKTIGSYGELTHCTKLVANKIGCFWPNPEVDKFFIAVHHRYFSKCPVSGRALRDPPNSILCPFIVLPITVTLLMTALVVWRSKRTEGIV
Experimental: Binding assays were carried out as described in Example II.
Cerebellum membranes were also tested, as this area contains high densities of CGRP receptors but low to absent amounts of the variant CGRP receptor subtypes present in nucleus accumbens (Sexton et al., 1988).

[5] = target: ^125 I-h CGRP binding sites in nucleus accumbens and surrounding regions; experiment: Competition for 125I-h CGRP binding to nucleus accumbens area (basal forebrain) membranes; design: species or system rat
Source text: From the ventral surface of rat brains, cuts were made rostral to the hypothalamus bounded laterally by the olfactory tracts and extending at a 45 angle medially from these tracts. This tissue, containing the nucleus accumbens and surrounding regions, was collected and weighed, and membranes prepared as described in Example I. The region from which tissue was collected as described above is here termed the basal forebrain, and includes the nucleus accumbens and surrounding regions.

[6] = system: insulin-stimulated glycogen synthesis in rat soleus muscle; experiment: Rat soleus muscle insulin-antagonism assay (inhibition of insulin-stimulated glycogen synthesis); assay type: cell-based; details: for IC50: insulin 1000 μU/ml, read-out: IC50 for inhibition of the stimulation of glycogen synthesis by insulin; for Agonist activity in words: amylin receptors in rat skeletal muscle
Experimental: The ability of insulin to stimulate glycogen synthesis in rat soleus muscle in vitro was measured as described by Leighton B. and Cooper, G. J. S., Nature 335:632-635 (1988), with the following modifications. Rats were unfed for 4 hours prior to sacrifice; muscles were not stretched on clips; bovine serum albumin (BSA) and HEPES were omitted from the assay medium; and, the insulin concentration used was 1000 μU/ml.

[7] = target: T2, CGRP binding sites (receptors) on liver membrane (Rattus norvegicus, UniProt Q63118+Q9JJ74); details: Morishita et al.; read-out: Affinity; cited from earlier work
T2 construct: host or cells: liver membranes; crude skeletal muscle membranes
T2 sequence (Q63118 24-464): as the sequence (Q63118 24-464) above
T2 sequence (Q9JJ74 27-148): as the sequence (Q9JJ74 27-148) above

[8] = target: T3, calcitonin sites in brain and renal membranes (Homo sapiens, UniProt P30988); details: cited from earlier work
T3 construct: host or cells: brain and renal membranes
T3 sequence (P30988 25-474): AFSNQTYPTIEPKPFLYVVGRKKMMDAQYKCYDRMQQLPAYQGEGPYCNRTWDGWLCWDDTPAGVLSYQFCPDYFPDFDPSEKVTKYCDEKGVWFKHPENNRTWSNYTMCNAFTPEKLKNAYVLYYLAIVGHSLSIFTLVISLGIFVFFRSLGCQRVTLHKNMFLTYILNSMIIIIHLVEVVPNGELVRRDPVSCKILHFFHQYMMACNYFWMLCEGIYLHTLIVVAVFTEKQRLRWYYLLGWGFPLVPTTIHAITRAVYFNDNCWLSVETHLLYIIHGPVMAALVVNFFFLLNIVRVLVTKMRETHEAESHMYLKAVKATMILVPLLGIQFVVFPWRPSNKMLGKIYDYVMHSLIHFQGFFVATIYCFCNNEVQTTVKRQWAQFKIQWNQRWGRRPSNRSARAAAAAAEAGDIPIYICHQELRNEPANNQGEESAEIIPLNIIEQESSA

[9] = system: rat liver membranes; experiment: 125I-r amylin binding to rat liver membranes; details: 15 pM tracer; 1 μM h CGRP or 1 μM r amylin as displacing peptide
Source text: (§1) Control tubes contained HBBM alone.
(§2) Filters were then counted in a gamma-counter.

[10] = system: rat soleus muscle membranes; experiment: Direct binding of labeled r amylin to rat soleus muscle membranes; details: by 1 μM unlabeled r amylin
Source text: as §1, §2

[11] = system: CGRP binding sites in cerebral cortex; details: human and rat cerebral cortex; cited from earlier work

T1 sequence (Q63118 24-464): as the sequence (Q63118 24-464) above
T1 sequence (Q9JJ74 27-148): as the sequence (Q9JJ74 27-148) above

Increase of binding to liver membranes in the presence of MgCl2 ([1]; 2 mM MgCl2): about 2.8 fold
Bmax ([1]; Scatchard analysis, rat liver membranes): 49.4 fmol/mg protein
Compound: CC(C)C[C@H](NC(=O)CNC(=O)[C@H](C)NC(=O)[C@H](CC(C)C)NC(=O)[C@H](CCCNC(=N)N)NC(=O)[C@H](Cc1cnc(I)[nH]1)NC(=O)[C@@H](NC(=O)[C@@H](NC(=O)[C@@H]1CSSC[C@H](NC(=O)[C@H](C)N)C(=O)N[C@@H](CC(=O)O)C(=O)N[C@@H]([C@@H](C)O)C(=O)N[C@@H](C)C(=O)N[C@@H]([C@@H](C)O)C(=O)N1)C(C)C)[C@@H](C)O)C(=O)N[C@@H](CC(C)C)C(=O)N[C@@H](CO)C(=O)N[C@@H](CCCNC(=N)N)C(=O)N[C@@H](CO)C(=O)NCC(=O)NCC(=O)N[C@H](C(=O)N[C@H](C(=O)N[C@@H](CCCCN)C(=O)N[C@@H](CC(N)=O)C(=O)N[C@@H](CC(N)=O)C(=O)N[C@@H](Cc1ccccc1)C(=O)N[C@H](C(=O)N1CCC[C@H]1C(=O)N[C@H](C(=O)N[C@@H](CC(N)=O)C(=O)N[C@H](C(=O)NCC(=O)N[C@@H](CO)C(=O)N[C@@H](CCCCN)C(=O)N[C@@H](C)C(=O)N[C@@H](Cc1ccccc1)C(N)=O)C(C)C)[C@@H](C)O)C(C)C)C(C)C)C(C)C [^125 I-h CGRP]

Compound: CC(C)C[C@H](NC(=O)[C@H](CC(N)=O)NC(=O)[C@H](CC(N)=O)NC(=O)[C@H](CO)NC(=O)[C@H](CO)NC(=O)[C@H](CCCNC(=N)N)NC(=O)[C@@H](NC(=O)[C@H](CC(C)C)NC(=O)[C@H](Cc1ccccc1)NC(=O)[C@H](CC(N)=O)NC(=O)[C@H](C)NC(=O)[C@H](CC(C)C)NC(=O)[C@H](CCCNC(=N)N)NC(=O)[C@H](CCC(N)=O)NC(=O)[C@@H](NC(=O)[C@H](C)NC(=O)[C@@H]1CSSC[C@H](NC(=O)[C@@H](N)CCCCN)C(=O)N[C@@H](CC(N)=O)C(=O)N[C@@H]([C@@H](C)O)C(=O)N[C@@H](C)C(=O)N[C@@H]([C@@H](C)O)C(=O)N1)[C@@H](C)O)C(C)C)C(=O)NCC(=O)N1CCC[C@H]1C(=O)N[C@H](C(=O)N[C@@H](CC(C)C)C(=O)N1CCC[C@H]1C(=O)N1CCC[C@H]1C(=O)N[C@H](C(=O)N[C@@H](CC(N)=O)C(=O)N[C@H](C(=O)NCC(=O)N[C@@H](CO)C(=O)N[C@@H](CC(N)=O)C(=O)N[C@H](C(=O)N[C@@H](Cc1ccc(O)cc1)C(N)=O)[C@@H](C)O)C(C)C)[C@@H](C)O)C(C)C [amylin]
IC50 [2]: 10 nM
Hyperglycemic effect compared with CGRP [3]: more effective hyperglycemic agent

Compound: CC(C)C[C@H](NC(=O)[C@H](CC(N)=O)NC(=O)[C@H](CC(N)=O)NC(=O)[C@H](CO)NC(=O)[C@H](CO)NC(=O)[C@H](CCCNC(=N)N)NC(=O)[C@@H](NC(=O)[C@H](CC(C)C)NC(=O)[C@H](Cc1ccccc1)NC(=O)[C@H](CC(N)=O)NC(=O)[C@H](C)NC(=O)[C@H](CC(C)C)NC(=O)[C@H](CCCNC(=N)N)NC(=O)[C@H](CCC(N)=O)NC(=O)[C@@H](NC(=O)[C@H](C)NC(=O)[C@@H]1CSSC[C@H](NC(=O)[C@@H](N)CCCCN)C(=O)N[C@@H](CC(N)=O)C(=O)N[C@@H]([C@@H](C)O)C(=O)N[C@@H](C)C(=O)N[C@@H]([C@@H](C)O)C(=O)N1)[C@@H](C)O)C(C)C)C(=O)NCC(=O)N1CCC[C@H]1C(=O)N[C@H](C(=O)N[C@@H](CC(C)C)C(=O)N1CCC[C@H]1C(=O)N1CCC[C@H]1C(=O)N[C@H](C(=O)N[C@@H](CC(N)=O)C(=O)N[C@H](C(=O)NCC(=O)N[C@@H](CO)C(=O)N[C@@H](CC(N)=O)C(=O)N[C@H](C(=O)N[C@@H](Cc1ccc(O)cc1)C(N)=O)[C@@H](C)O)C(C)C)[C@@H](C)O)C(C)C [r amylin, rat amylin]
Hill Slope ([1]; competition against ^125 I-h CGRP, rat liver membranes): -0.67
Hill Slope [4]: -0.897
IC50 ([5]; Nucleus Accumbens Area, ^125 I-h CGRP tracer, r amylin 2 site fit): 5.89 nM
IC50 ([5]; high affinity site of biphasic inhibition): 0.026 nM
IC50 [6]: 8.3 ± 1.9 nM

Compound: CGRP
Potency relative to h CGRP8-37 ([1]; liver membranes): 4 times
Potency relative to r amylin ([1]; liver membranes): about 200 fold
Ki [7]: ~9 pM
IC50 [2]: 0.3 nM
Fold less potent in competing for calcitonin sites [8]: 500-1000 fold

Specific binding to rat liver membranes [9]: No specific binding
Proportion of total binding displaceable [10]: 15%
Compound: ^125 I-r amylin: rat amylin Bolton-Hunter labeled with 125I at the N-terminal lysine, from Amersham

Compound: calcitonin
Fold less potent than rat or human CGRP [11]: 500-1000 fold

IC50 [6]: 0.4 nM
Compound: eel calcitonin
Agonist activity in words [6]: potent agonists at amylin receptors

IC50 [6]: 0.38 nM
Compound: salmon calcitonin
Agonist activity in words [6]: potent agonists at amylin receptors
